Where “and” joins values, the source holds several entries; their conditions need not be identical. Identical values can stand only once.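 1) Cells in 96-well plates. 2) Compound, 48 h, 5 concentrations. 3) Linear interpolation between surrounding doses. 4) Unreached endpoint = highest concentration. GI50: concentration for 50% inhibition of growth. TGI is the concentration that stops growth completely.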

Test systems include SK-MEL-28 melanoma; MOLT-4 leukemia; ACHN renal; UO-31 renal; OVCAR-5 ovarian; CAKI-1 renal; UACC-62 melanoma; SN12C renal; K-562 leukemia; HL-60(TB) leukemia; RPMI-8226 leukemia.
What all share (assay): NCI anticancer screen, dose series, 48 h

`COc1ccc(S(=O)(=O)N2C(=O)CCC2C(=O)NC(N)=O)cc1` (configuration not stated): the TGI in the test on SK-MEL-28 melanoma, in the test with MOLT-4 leukemia, in the test with ACHN renal, in the test with UO-31 renal, with OVCAR-5 ovarian and in the test with CAKI-1 renal was greater than 100 µM each time. Besides, the TGI in the test with UACC-62 melanoma, in the test on SN12C renal, with K-562 leukemia, in the test with HL-60(TB) leukemia and in the test on RPMI-8226 leukemia was greater than 100 µM throughout.

With `O=C(Nc1ccc(C(F)(F)F)cc1)NC(F)(F)F`, the TGI in the test on SK-MEL-28 melanoma, with MOLT-4 leukemia, in the test with ACHN renal, with UO-31 renal, in the test with OVCAR-5 ovarian and with CAKI-1 renal was greater than 100 µM in each case. Further, the TGI in the test with SN12C renal, in the test with K-562 leukemia, with HL-60(TB) leukemia and in the test with RPMI-8226 leukemia was greater than 100 µM each time.

`Oc1c(Br)cc(/C=C/c2ccnc(/C=C/c3cc(Br)c(O)c(Br)c3)c2)cc1Br`: the TGI in the test with SK-MEL-28 melanoma was greater than 100 µM; in the test on MOLT-4 leukemia it was 45.8 µM; in the test with ACHN renal, greater than 100 µM; with UO-31 renal, 35.4 µM; in the test on OVCAR-5 ovarian, 55.3 µM; with CAKI-1 renal, greater than 100 µM. The TGI was 73.8 µM with UACC-62 melanoma; greater than 100 µM in the test on SN12C renal; 60.1 µM with K-562 leukemia; 60.6 µM with HL-60(TB) leukemia; 51.6 µM in the test on RPMI-8226 leukemia.

Turning to `Cc1ccc(CC2(C(=O)O)Cc3ccc(C)cc3C2)cc1` (configuration not stated), the TGI in the test on SK-MEL-28 melanoma, in the test with MOLT-4 leukemia, in the test with ACHN renal, with UO-31 renal, in the test on OVCAR-5 ovarian and in the test on CAKI-1 renal was greater than 100 µM in each case. Besides, the TGI in the test with UACC-62 melanoma, with SN12C renal, with K-562 leukemia, in the test with HL-60(TB) leukemia and with RPMI-8226 leukemia was greater than 100 µM throughout.

As to `CCOc1cc(C2CC(c3ccc(NS(=O)(=O)c4cc([N+](=O)[O-])ccc4C)cc3)=NN2S(=O)(=O)c2cc([N+](=O)[O-])ccc2C)ccc1O` (configuration not stated), the TGI with SK-MEL-28 melanoma, in the test on MOLT-4 leukemia, in the test on ACHN renal, in the test with UO-31 renal, with OVCAR-5 ovarian and with CAKI-1 renal was greater than 100 µM throughout. Also, the TGI with SN12C renal is 81.3 µM; with K-562 leukemia, greater than 100 µM; with HL-60(TB) leukemia it was greater than 100 µM; in the test with RPMI-8226 leukemia, greater than 100 µM.

In the case of `CC1OC(OC2C(OC(=O)[C@]34CCC(C)(C)C[C@H]3C3=CC[C@@H]5[C@@]6(C)CC[C@H](OC7OC(C(=O)O)C(O)C(O)C7O)C(C)(C)[C@@H]6CC[C@@]5(C)[C@]3(C)C[C@H]4O)OCC(O)C2O)C(O)C(O)C1OC1OCC(O)C(O)C1O` (some centres not stated), in the test on SK-MEL-28 melanoma, the GI50 is 14.9 µM and 7.34 µM. The TGI in the test with SK-MEL-28 melanoma is 29.1 µM and 22 µM; with MOLT-4 leukemia it was 34.6 µM and 74.8 µM; in the test with ACHN renal, 21.5 µM; with UO-31 renal it was 24.1 µM and 20.1 µM; in the test with OVCAR-5 ovarian, 28.5 µM and 23 µM; in the test on CAKI-1 renal it was 25.6 µM and 21.6 µM. For the same compound, the TGI in the test on UACC-62 melanoma is 32.7 µM and 30.1 µM; with SN12C renal, 16 µM and 6.05 µM; with K-562 leukemia it was 35.4 µM and 36.3 µM; in the test on HL-60(TB) leukemia, 30.5 µM and 26.9 µM; in the test with RPMI-8226 leukemia, 30.4 µM and 94 µM.

In the case of `CC(C)CC(NC(=O)C(C)(CI)Cc1ccccc1)C(=O)Nc1ccccc1` (configuration not stated), the TGI in the test with MOLT-4 leukemia, with ACHN renal, in the test with UO-31 renal, in the test with OVCAR-5 ovarian, in the test with CAKI-1 renal and in the test on UACC-62 melanoma was greater than 100 µM each time. For the same compound, the TGI in the test with SN12C renal, in the test with K-562 leukemia, with HL-60(TB) leukemia and with RPMI-8226 leukemia was greater than 100 µM in each case.

Consider `CCOC1CN=C(Nc2cccc3ccccc23)S1` (configuration not stated), for which the TGI in the test with SK-MEL-28 melanoma, in the test on MOLT-4 leukemia, in the test on ACHN renal, in the test with OVCAR-5 ovarian, with CAKI-1 renal and in the test on UACC-62 melanoma was greater than 10 µM each time. In addition, the TGI in the test with SN12C renal, in the test with K-562 leukemia, with HL-60(TB) leukemia and in the test with RPMI-8226 leukemia was greater than 10 µM throughout.

`CC1CC(N)=C(C#N)C1(C#N)C#N` (configuration not stated): the TGI is greater than 100 µM in the test on MOLT-4 leukemia; greater than 100 µM in the test with ACHN renal; greater than 100 µM in the test with UO-31 renal; greater than 100 µM in the test with OVCAR-5 ovarian; 59.7 µM in the test with CAKI-1 renal; greater than 100 µM in the test on UACC-62 melanoma. In addition, the TGI in the test on SN12C renal, in the test on K-562 leukemia, in the test with HL-60(TB) leukemia and in the test on RPMI-8226 leukemia was greater than 100 µM each time.

In the case of `COC(=O)CCC(=O)c1ccc2c(c1)CCC2`, the TGI in the test with SK-MEL-28 melanoma, in the test with MOLT-4 leukemia, with ACHN renal, in the test on UO-31 renal, in the test with OVCAR-5 ovarian and with CAKI-1 renal was greater than 100 µM in each case. Also, the TGI in the test with K-562 leukemia, in the test with HL-60(TB) leukemia and in the test with RPMI-8226 leukemia was greater than 100 µM throughout.

As to `N#Cc1ccc(C(O)C(F)(F)c2nc3ccccc3o2)cc1` (configuration not stated), the TGI with SK-MEL-28 melanoma, with MOLT-4 leukemia, in the test with ACHN renal, in the test on UO-31 renal, in the test on CAKI-1 renal and with UACC-62 melanoma was greater than 100 µM in each case. The figures for the TGI with K-562 leukemia, in the test on HL-60(TB) leukemia and in the test on RPMI-8226 leukemia were 45.7 µM, greater than 100 µM and greater than 100 µM, respectively.

As to `COC(=O)c1c([N+](=O)[O-])ncn1[C@H]1OC[C@@H](OC(C)=O)[C@@H](OC(C)=O)[C@@H]1OC(C)=O`, the TGI in the test on SK-MEL-28 melanoma, in the test with MOLT-4 leukemia, with ACHN renal, in the test on UO-31 renal, in the test on OVCAR-5 ovarian and in the test on CAKI-1 renal was greater than 100 µM in each case. The TGI with UACC-62 melanoma, in the test with SN12C renal, with K-562 leukemia and in the test on HL-60(TB) leukemia was greater than 100 µM throughout.

In the case of `COc1ccc(C(=O)C#Cc2cn(C3CC(O)C(CO)O3)c(=O)[nH]c2=O)cc1` (configuration not stated), the TGI was 50.5 µM with SK-MEL-28 melanoma; greater than 100 µM in the test with MOLT-4 leukemia; greater than 100 µM with ACHN renal; greater than 100 µM in the test on UO-31 renal; greater than 100 µM in the test on CAKI-1 renal; greater than 100 µM with UACC-62 melanoma. In addition, the TGI is greater than 100 µM with SN12C renal, greater than 100 µM in the test with K-562 leukemia, greater than 10 µM in the test on HL-60(TB) leukemia and greater than 100 µM with RPMI-8226 leukemia.

For the compound `COc1ccc2c(c1)Cc1c(NCCN(C)C)ccc(C(=O)NCCCN(C)CCCNC(=O)c3ccc(NCCN(C)C)c4c3Nc3ccc(OC)cc3C4)c1N2`, the TGI in the test with SK-MEL-28 melanoma was determined as 1.46 µM; in the test with MOLT-4 leukemia, 2.62 µM; in the test with ACHN renal, 9.79 µM; in the test on UO-31 renal it was 14.2 µM; in the test on OVCAR-5 ovarian it was 0.631 µM; in the test on CAKI-1 renal, 11.9 µM. The TGI turned out to be 0.365 µM in the test with UACC-62 melanoma, 0.624 µM in the test on SN12C renal, 3.14 µM with K-562 leukemia and 1.17 µM with HL-60(TB) leukemia.

With `CC1=NN(c2cccc(Cl)c2)C2(SCC(=O)N2c2nc3ccccc3s2)C1=CC=Cc1ccccc1` (configuration not stated), the TGI in the test with SK-MEL-28 melanoma was greater than 100 µM; with MOLT-4 leukemia it was 87.5 µM; in the test with ACHN renal, 65.9 µM; in the test with UO-31 renal, greater than 100 µM; in the test with OVCAR-5 ovarian it was greater than 100 µM; with CAKI-1 renal, greater than 100 µM. In addition, the TGI in the test on K-562 leukemia is greater than 100 µM; in the test on HL-60(TB) leukemia, 3.04 µM; in the test with RPMI-8226 leukemia it was greater than 100 µM.

Turning to `CCOC(=O)Cc1csc(NC(NC(=O)OCC)(C(=O)OCC)C(F)(F)F)n1` (configuration not stated), the TGI in the test on SK-MEL-28 melanoma, with MOLT-4 leukemia, in the test on ACHN renal, with UO-31 renal, in the test on OVCAR-5 ovarian and with CAKI-1 renal was greater than 100 µM throughout. For the same compound, the TGI with SN12C renal, with K-562 leukemia, in the test on HL-60(TB) leukemia and in the test on RPMI-8226 leukemia was greater than 100 µM in each case.

Turning to `Cc1ccc(CC(Cc2ccccc2C)C(=O)O)c(C(=O)O)c1` (configuration not stated), the TGI in the test with SK-MEL-28 melanoma, with MOLT-4 leukemia, in the test with ACHN renal, with UO-31 renal, in the test with OVCAR-5 ovarian and in the test on CAKI-1 renal was greater than 100 µM in each case. Moreover, the TGI in the test on SN12C renal, with K-562 leukemia, with HL-60(TB) leukemia and in the test on RPMI-8226 leukemia was greater than 100 µM throughout.

Consider `Cc1c(C)c2ccc(OCC(O)COC(C)C)c(C)c2oc1=O` (configuration not stated), for which the TGI was greater than 100 µM with SK-MEL-28 melanoma; greater than 10 µM with MOLT-4 leukemia; greater than 100 µM with ACHN renal; greater than 100 µM in the test with UO-31 renal; greater than 100 µM in the test with OVCAR-5 ovarian; greater than 100 µM with CAKI-1 renal. For the same compound, the TGI was greater than 100 µM in the test with UACC-62 melanoma, 71.4 µM in the test with K-562 leukemia, 60.3 µM in the test with HL-60(TB) leukemia and 44.4 µM in the test with RPMI-8226 leukemia.

Take `COc1cc2c(cc1OC)OC(c1c(OC)ccc(OC)c1O)CC2` (configuration not stated): the TGI with SK-MEL-28 melanoma, with MOLT-4 leukemia, in the test with ACHN renal, in the test on UO-31 renal, in the test on OVCAR-5 ovarian and in the test with CAKI-1 renal was greater than 100 µM each time. For the same compound, the TGI in the test on UACC-62 melanoma was greater than 100 µM; in the test on K-562 leukemia it was greater than 100 µM; in the test with HL-60(TB) leukemia, 69.4 µM; in the test on RPMI-8226 leukemia it was greater than 100 µM.

For the origin of these results see PubChem BioAssay (NCI).
